Results reported in PubChem BioAssay AID220 (DTP/NCI, 2004).
“And” between values parts separate entries of the source, which are not always exact repeats. Identical values can stand only once. Records with an inconclusive call do not appear.

System: CD8F1 mice, subcutaneous mammary adenocarcinoma, T/C%
Assay: NCI In Vivo Anticancer Drug Screen. Data for tumor model Mammary Adenocarcinoma CD8F1 (subcutaneous) in CD8F1
Details: higher = larger tumour
Summary of the method: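 Ratio of treated to vehicle-control outcome, based on either survival or tumor size, in mice bearing transplantable tumors given the test compound.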

[1] = endpoint: median tumor weight (est.), dose: 25.0 mg/kg/injection, schedule: Q07DX005 (ip), vehicle: saline with Tween-80
[2] = endpoint: median tumor weight (est.), dose: 50.0 mg/kg/injection, schedule: Q07DX005 (ip), vehicle: saline with Tween-80
[3] = endpoint: median tumor weight (est.), dose: 100.0 mg/kg/injection, schedule: Q07DX005 (ip), vehicle: saline with Tween-80
[4] = endpoint: median tumor weight change, dose: 31.25 mg/kg/injection, schedule: Q01DX001 (ip), vehicle: saline with Tween-80
[5] = endpoint: median tumor weight change, dose: 125.0 mg/kg/injection, schedule: Q01DX001 (ip), vehicle: saline with Tween-80
[6] = endpoint: median tumor weight change, dose: 250.0 mg/kg/injection, schedule: Q01DX001 (ip), vehicle: saline with Tween-80
[7] = endpoint: median tumor weight change, dose: 500.0 mg/kg/injection, schedule: Q01DX001 (ip), vehicle: saline with Tween-80

For CN(C)c1nc(N(C)C)nc(N(C)C)n1, the T/C (endpoint: mean tumor weight, dose: 75.0 mg/kg/injection, schedule: Q01DX009 (ip), vehicle: saline) was 64 % of control, the T/C (endpoint: mean tumor weight, dose: 150.0 mg/kg/injection, schedule: Q01DX009 (ip), vehicle: saline) was 94 % of control and the T/C (endpoint: mean tumor weight, dose: 250.0 mg/kg/injection, schedule: Q07DX006 (ip), vehicle: saline) was 108 % of control. The T/C (endpoint: mean tumor weight, dose: 300.0 mg/kg/injection, schedule: Q01DX009 (ip), vehicle: saline) was 8 % of control, the T/C (endpoint: mean tumor weight, dose: 300.0 mg/kg/injection, schedule: Q07DX006 (ip), vehicle: saline) was 113 % of control and the T/C (endpoint: median tumor weight (est.), dose: 12.5 mg/kg/injection, schedule: Q07DX006 (ip), vehicle: saline with Tween-80) was 100 % of control. For the same compound, the T/C (endpoint: median tumor weight (est.), dose: 16.0 mg/kg/injection, schedule: Q07DX005 (ip), vehicle: saline with Tween-80) was 171 % of control, the T/C [1] was 80 % of control and the T/C (endpoint: median tumor weight (est.), dose: 25.0 mg/kg/injection, schedule: Q07DX006 (ip), vehicle: saline with Tween-80) was 54 % of control. For the same compound, the T/C (endpoint: median tumor weight (est.), dose: 32.0 mg/kg/injection, schedule: Q07DX005 (ip), vehicle: acid diluted with saline) was 31 % of control, the T/C (endpoint: median tumor weight (est.), dose: 32.0 mg/kg/injection, schedule: Q07DX005 (ip), vehicle: saline with Tween-80) was 179 % of control and the T/C [2] was 73 % of control. For the same compound, the T/C (endpoint: median tumor weight (est.), dose: 50.0 mg/kg/injection, schedule: Q07DX006 (ip), vehicle: saline with Tween-80) was 50 % of control, the T/C (endpoint: median tumor weight (est.), dose: 64.0 mg/kg/injection, schedule: Q07DX005 (ip), vehicle: acid diluted with saline) was 39 % of control and the T/C (endpoint: median tumor weight (est.), dose: 64.0 mg/kg/injection, schedule: Q07DX005 (ip), vehicle: saline with Tween-80) was 212 % of control and 76 % of control. For the same compound, the T/C [3] was 62 % of control, the T/C (endpoint: median tumor weight (est.), dose: 100.0 mg/kg/injection, schedule: Q07DX006 (ip), vehicle: saline with Tween-80) was 78 % of control and the T/C (endpoint: median tumor weight (est.), dose: 128.0 mg/kg/injection, schedule: Q07DX005 (ip), vehicle: acid diluted with saline) was 53 % of control. For the same compound, the T/C (endpoint: median tumor weight (est.), dose: 200.0 mg/kg/injection, schedule: Q07DX005 (ip), vehicle: saline with Tween-80) was 44 % of control, the T/C (endpoint: median tumor weight (est.), dose: 200.0 mg/kg/injection, schedule: Q07DX006 (ip), vehicle: saline with Tween-80) was 5 % of control and the T/C (endpoint: median tumor weight (est.), dose: 256.0 mg/kg/injection, schedule: Q07DX005 (ip), vehicle: acid diluted with saline) was 29 % of control. For the same compound, the T/C (endpoint: median tumor weight change, dose: 100.0 mg/kg/injection, schedule: Q01DX001 (ip), vehicle: acid diluted with saline) was 103 % of control and 104 % of control, the T/C (endpoint: median tumor weight change, dose: 200.0 mg/kg/injection, schedule: Q01DX001 (ip), vehicle: acid diluted with saline) was 61 % of control and the T/C (endpoint: median tumor weight change, dose: 800.0 mg/kg/injection, schedule: Q01DX001 (ip), vehicle: acid diluted with saline) was 37 % of control and 51 % of control.

For Nc1nc(=S)c2[nH]cnc2[nH]1, the T/C (endpoint: median tumor weight (est.), dose: 1.0 mg/kg/injection, schedule: Q07DX005 (ip), vehicle: Klucel (hydroxypropylcellulose) (HPC)) was 71 % of control, the T/C (endpoint: median tumor weight (est.), dose: 2.0 mg/kg/injection, schedule: Q07DX005 (ip), vehicle: Klucel (hydroxypropylcellulose) (HPC)) was 74 % of control and the T/C (endpoint: median tumor weight (est.), dose: 4.0 mg/kg/injection, schedule: Q07DX005 (ip), vehicle: Klucel (hydroxypropylcellulose) (HPC)) was 42 % of control. The T/C (endpoint: median tumor weight (est.), dose: 8.0 mg/kg/injection, schedule: Q07DX005 (ip), vehicle: Klucel (hydroxypropylcellulose) (HPC)) was 20 % of control, the T/C (endpoint: median tumor weight (est.), dose: 8.0 mg/kg/injection, schedule: Q07DX005 (ip), vehicle: other) was 29 % of control and the T/C (endpoint: median tumor weight (est.), dose: 12.0 mg/kg/injection, schedule: Q07DX005 (ip), vehicle: other) was 19 % of control. The T/C (endpoint: median tumor weight (est.), dose: 16.0 mg/kg/injection, schedule: Q07DX005 (ip), vehicle: Klucel (hydroxypropylcellulose) (HPC)) was 7 % of control and the T/C (endpoint: median tumor weight (est.), dose: 16.0 mg/kg/injection, schedule: Q07DX005 (ip), vehicle: other) was 16 % of control.

CC/C(=C(\c1ccccc1)c1ccc(OCCN(C)C)cc1)c1ccccc1 was tested, and the T/C (endpoint: mean tumor weight (est.), dose: 150.0 mg/kg/injection, schedule: Q07DX002 (ip), vehicle: saline) was 102 % of control, the T/C (endpoint: mean tumor weight (est.), dose: 200.0 mg/kg/injection, schedule: Q07DX002 (ip), vehicle: saline) was 100 % of control and the T/C (endpoint: mean tumor weight, dose: 100.0 mg/kg/injection, schedule: Q07DX007 (ip), vehicle: saline) was 45 % of control. The T/C (endpoint: mean tumor weight, dose: 150.0 mg/kg/injection, schedule: Q07DX008 (ip), vehicle: saline) was 52 % of control, the T/C (endpoint: mean tumor weight, dose: 200.0 mg/kg/injection, schedule: Q07DX007 (ip), vehicle: saline) was 15 % of control and the T/C (endpoint: mean tumor weight, dose: 200.0 mg/kg/injection, schedule: Q07DX008 (ip), vehicle: saline) was 31 % of control. For the same compound, the T/C (endpoint: median tumor weight change, dose: 25.0 mg/kg/injection, schedule: Q01DX001 (ip), vehicle: suspension in saline) was 105 % of control, the T/C (endpoint: median tumor weight change, dose: 50.0 mg/kg/injection, schedule: Q01DX001 (ip), vehicle: suspension in saline) was 111 % of control and the T/C (endpoint: median tumor weight change, dose: 100.0 mg/kg/injection, schedule: Q01DX001 (ip), vehicle: suspension in saline) was 150 % of control. For the same compound, the T/C (endpoint: median tumor weight change, dose: 200.0 mg/kg/injection, schedule: Q01DX001 (ip), vehicle: suspension in saline) was 158 % of control.

CC(=O)O[C@@H]1CO[C@H]2O[C@H]3[C@@H](C(C=O)=C[C@H](O)[C@@H]4C5=C(C(C)C)CC[C@]5(C)CC[C@@]34C)[C@@]2(O)C1=O was tested, and the T/C (endpoint: median tumor weight change, dose: 3.75 mg/kg/injection, schedule: Q01DX001 (ip), vehicle: Klucel (hydroxypropylcellulose) (HPC)) was 36 % of control and the T/C (endpoint: median tumor weight change, dose: 15.0 mg/kg/injection, schedule: Q01DX001 (ip), vehicle: Klucel (hydroxypropylcellulose) (HPC)) was 63 % of control and 74 % of control.

Nc1nnc[se]1 was tested, and the T/C (endpoint: median tumor weight change, dose: 15.6 mg/kg/injection, schedule: Q01DX001 (ip), vehicle: saline with Tween-80) was 80 % of control, the T/C [4] was 123 % of control and the T/C (endpoint: median tumor weight change, dose: 62.5 mg/kg/injection, schedule: Q01DX001 (ip), vehicle: saline with Tween-80) was 84 % of control. The T/C [5] was 94 % of control, the T/C [6] was 50 % of control and the T/C [7] was 38 % of control.

In the case of Nc1nc2c(ncn2C2OC(CO)C(O)C2O)c(=O)[nH]1.Nc1nc2c(ncn2C2OC(CO)C(O)C2O)c(=O)[nH]1.[NH2-].[NH2-].[Pt+2] (stereo not drawn), the T/C (endpoint: median tumor weight (est.), dose: 12.5 mg/kg/injection, schedule: Q07DX005 (ip), vehicle: water) is reported as 52 % of control, the T/C (endpoint: median tumor weight (est.), dose: 25.0 mg/kg/injection, schedule: Q07DX005 (ip), vehicle: water) is reported as 61 % of control and the T/C (endpoint: median tumor weight (est.), dose: 50.0 mg/kg/injection, schedule: Q07DX005 (ip), vehicle: water) is reported as 34 % of control. For the same compound, the T/C (endpoint: median tumor weight (est.), dose: 100.0 mg/kg/injection, schedule: Q07DX005 (ip), vehicle: water) was 51 % of control and the T/C (endpoint: median tumor weight (est.), dose: 200.0 mg/kg/injection, schedule: Q07DX005 (ip), vehicle: water) was 40 % of control.

With CN(c1ccccc1)P(=O)(N1CC1)N1CC1 the T/C (endpoint: mean tumor weight, dose: 12.5 mg/kg/injection, schedule: Q07DX007 (ip), vehicle: saline) was 3 % of control.

NCC1CCC(C(=O)O)CC1 (stereo not drawn) was tested, and the T/C [5] was 63 % of control, the T/C [6] was 86 % of control and the T/C [7] was 36 % of control. For the same compound, the T/C (endpoint: median tumor weight change, dose: 1000.0 mg/kg/injection, schedule: Q01DX001 (ip), vehicle: saline with Tween-80) was 97 % of control and the T/C (endpoint: median tumor weight change, dose: 2000.0 mg/kg/injection, schedule: Q01DX001 (ip), vehicle: saline with Tween-80) was 62 % of control.

In the case of c1ccc([P+](c2ccccc2)(c2ccccc2)c2ccccc2)cc1, the T/C (endpoint: median tumor weight (est.), dose: 0.31 mg/kg/injection, schedule: Q07DX004 (ip), vehicle: saline) is reported as 218 % of control and 86 % of control, the T/C (endpoint: median tumor weight (est.), dose: 0.31 mg/kg/injection, schedule: Q07DX005 (ip), vehicle: saline) is reported as 98 % of control and the T/C (endpoint: median tumor weight (est.), dose: 0.62 mg/kg/injection, schedule: Q04DX005 (ip), vehicle: saline) is reported as 50 % of control and 67 % of control. The T/C (endpoint: median tumor weight (est.), dose: 0.62 mg/kg/injection, schedule: Q07DX005 (ip), vehicle: saline) was 121 % of control, the T/C (endpoint: median tumor weight (est.), dose: 1.25 mg/kg/injection, schedule: Q04DX005 (ip), vehicle: saline) was 100 % of control and the T/C (endpoint: median tumor weight (est.), dose: 1.25 mg/kg/injection, schedule: Q07DX004 (ip), vehicle: saline) was 124 % of control. For the same compound, the T/C (endpoint: median tumor weight (est.), dose: 1.25 mg/kg/injection, schedule: Q07DX005 (ip), vehicle: saline) was 62 % of control, the T/C (endpoint: median tumor weight (est.), dose: 2.5 mg/kg/injection, schedule: Q04DX005 (ip), vehicle: saline) was 73 % of control and 76 % of control and the T/C (endpoint: median tumor weight (est.), dose: 2.5 mg/kg/injection, schedule: Q07DX005 (ip), vehicle: saline) was 63 % of control.

With CCCCCCCCCCCCN1C(C)=CS/C1=C\C=C\c1scc(C)[n+]1CCCCCCCCCCCC the T/C (endpoint: median tumor weight change, dose: 7.82 mg/kg/injection, schedule: Q01DX001 (ip), vehicle: saline with Tween-80) was 80 % of control, the T/C (endpoint: median tumor weight change, dose: 15.63 mg/kg/injection, schedule: Q01DX001 (ip), vehicle: saline with Tween-80) was 92 % of control and the T/C [4] was 65 % of control.

In the case of O=c1nc(Oc2ccccc2)nc2ncccn12, the T/C (endpoint: median tumor weight (est.), dose: 6.25 mg/kg/injection, schedule: Q07DX005 (ip), vehicle: saline with Tween-80) is reported as 88 % of control, the T/C (endpoint: median tumor weight (est.), dose: 12.5 mg/kg/injection, schedule: Q07DX005 (ip), vehicle: saline with Tween-80) is reported as 110 % of control and the T/C [1] is reported as 100 % of control. The T/C [2] was 91 % of control and the T/C [3] was 114 % of control.
